PubChem BioAssay (NCI)
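Tested at 5 concentrations; 48 h exposure; 96-well plates; endpoints linearly interpolated, else capped at highest concentration. GI50: concentration for 50% inhibition of growth. TGI marks complete inhibition of growth.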

How the values were obtained:
Test in all cases: DTP human tumour cell line panel, 48 h
NCI/ADR-RES ovarian = system: NCI/ADR-RES ovarian
SNB-75 CNS = system: SNB-75 CNS
EKVX NSCLC = system: EKVX NSCLC
ACHN renal = system: ACHN renal
SN12C renal = system: SN12C renal
CCRF-CEM leukemia = system: CCRF-CEM leukemia
SK-MEL-28 melanoma = system: SK-MEL-28 melanoma
HCC-2998 colon = system: HCC-2998 colon
SNB-19 CNS = system: SNB-19 CNS
MDA-MB-231 breast = system: MDA-MB-231 breast

Compound | TGI (NCI/ADR-RES ovarian) [µM] | TGI (SNB-75 CNS) [µM] | TGI (EKVX NSCLC) [µM] | TGI (ACHN renal) [µM] | TGI (SN12C renal) [µM] | TGI (CCRF-CEM leukemia) [µM] | TGI (SK-MEL-28 melanoma) [µM] | TGI (HCC-2998 colon) [µM] | TGI (SNB-19 CNS) [µM] | TGI (MDA-MB-231 breast) [µM] | GI50 (NCI/ADR-RES ovarian) [µM] | GI50 (SNB-75 CNS) [µM] | GI50 (EKVX NSCLC) [µM] | GI50 (ACHN renal) [µM] | GI50 (SN12C renal) [µM] | GI50 (CCRF-CEM leukemia) [µM] | GI50 (SK-MEL-28 melanoma) [µM] | GI50 (HCC-2998 colon) [µM] | GI50 (SNB-19 CNS) [µM] | GI50 (MDA-MB-231 breast) [µM]
S=CN1CCCCC1 | > 100 | > 100 | > 100 | > 100 | > 100 | > 100 | > 100 | > 100 | > 100 | > 100 |  |  |  |  |  |  |  |  |  | 
CC(C)(C)[OH+][O-].[O-]c1ccc(Cl)cc1C=Nc1ccc(Cl)cc1[O-].[O]=[V] | > 100 | 30.8 | 18.1 | 48 | > 100 | 35.3 | 53.8 | 25.7 | 66.2 | > 100 | 29.1 | 12.1 | 2.84 | 16.2 | 24.2 | 3.93 | 19.2 | 11.2 | 25.1 | 29.9
O=C1c2ccccc2-c2c1c1ccccc1c(=O)n2CCCNCCCn1c2c(c3ccccc3c1=O)C(=O)c1ccccc1-2 | 17.3 | > 50 | 14.8 | 8.81 | 14.9 | > 50 | > 36.9 | 17.7 | > 40.5 | 4.25 | 3.94 | 6.1 | 3.98 | 0.814 | 3.4 | 12.6 | 11 | 6.82 | 6.83 | 1.09
O=C(Nc1ccc(S(=O)(=O)Nc2nccs2)cc1)c1cccnc1Nc1cccc(Cl)c1 | 45.7 | 51.3 | > 100 | 96.6 | 25.9 | > 100 | 37.7 | 27.9 | 34.4 | 21.4 | 15.6 | 9.43 | 18.3 | 18.1 | 12.5 | 23.4 | 17.8 | 14.1 | 14.7 | 5.73
COc1cccc(-c2nn(-c3ccccc3)cc2-c2ccnc(NCCNS(=O)(=O)c3ccc(Cl)cc3)c2)c1 | > 100 | > 100 | > 100 | > 100 | > 100 | > 100 | > 100 | > 100 | > 100 | > 100 | 4.29 | 7.92 | 3.84 | 4.56 | 5.45 | 3.47 | 7.99 | 4.26 | 7.44 | 3.55
COc1ccc(C(=O)Cn2c(C(=O)c3ccc(Cl)cc3)nc3ccccc32)cc1 | > 37.4 | > 100 | > 100 | > 100 | > 100 | > 100 | > 100 | > 100 | > 100 | > 100 | 5.15 | 20.9 | > 42.9 | 22.9 | 97.8 | 3.02 | > 22.4 | 6.55 | 46.5 | 24.8
Oc1c(CN2CCC(N3CCOCC3)CC2)cc(Cc2cc(CN3CCC(N4CCOCC4)CC3)c(O)c3ncccc23)c2cccnc12 | > 100 | 38.2 | > 100 | 12.9 | > 100 | > 100 | 22.9 | 13.5 | > 100 | 5.03 | 3.54 | 2.57 | 0.737 | 0.481 | 0.67 | 0.337 | 1.4 | 1.52 | 0.67 | 0.27
O=C(/C=C/c1ccco1)c1ccc(Nc2nc(Nc3ccc(F)cc3)nc(Nc3ccc(Cl)cc3)n2)cc1 | > 100 | > 80.9 | > 60.2 | > 78.9 | > 100 | > 94.4 | > 61.8 | > 100 | > 70 | 61.9 | 26.1 | 30.5 | > 32.1 | > 45.2 | 45.6 | > 37.8 | > 40.2 | 38.1 | 34.8 | 16.2
